{"source": "patent US11478494B2", "about": "“Methods and substances for prevention and treatment of neurodegenerative diseases” (Locus IP Company, LLC, priority 2017, dated 2022)", "origin": "cited, not measured here", "key": {"[1]": {"details": "oral administration"}, "[2]": {"details": "surfactin administration"}}, "note": "*1 amine or outer side, *2 acyl side, *3 side chain or, on linkers, in order; H or OH if unused. Where a SMILES comes first, the peptide text is derived from it. Bridges are numbered along the chain shown (N, C = ends). [ ]: non-standard residue; d: D form. X1 = CC(C)CCCCCCCCC[C@H](CC(=O)[*:1])O[*:2]"}
{"compound": "sophorolipid [SLP]", "values": [{"measurement": "oral dose administered without toxicity", "setting": "[1]", "result": "≤ 5 grams/kg of body weight"}]}
{"compound": "CC(C)CCCCCCCCC[C@@H]1CC(=O)N[C@@H](CCC(=O)O)C(=O)N[C@@H](CC(C)C)C(=O)N[C@H](CC(C)C)C(=O)N[C@@H](C(C)C)C(=O)N[C@@H](CC(=O)O)C(=O)N[C@H](CC(C)C)C(=O)N[C@@H](CC(C)C)C(=O)O1", "note": "[surfactin] (EL[dL]VD[dL]L; linker N-C via X1)", "values": [{"measurement": "concentration without any significant toxic effects", "setting": "[2]", "result": "≤ 25", "unit": "µM"}]}
